# Laboratory results published in patent US8455004B2, “Primary composition comprising a lipophilic bioactive compound” (Nestec S.A., priority 2000, dated 2013).
# Test: Aqueous-phase analysis of the stability of lycopene (decomposition by light and oxygen)
# Assay type: physicochemical
# Method: It is known that light and oxygen cause lycopene to decompose. An aqueous-phase analysis of the stability of lycopene alone and of lycopene in combination with the whey protein according to the invention was carried out. After one day in the aqueous phase for lycopene alone, only 40% of the lycopene remains, whereas, with the whey, virtually 90% of it, remains.
compound,measurement,setting,value
"CC(C)=CCC/C(C)=C/C=C/C(C)=C/C=C/C(C)=C/C=C/C=C(C)/C=C/C=C(C)/C=C/C=C(\C)CCC=C(C)C [lycopene alone, lycopene]",Lycopene remaining after one day,one day,40%
same,Lycopene remaining after two days,two days,virtually completely decomposed
